Measured values taken from patent publication EP0263903A1, “Method for preparing specific inhibitors of virus-specified proteases” (priority 1986, dated 1988).
Like-named read-outs stand apart in the source and are kept apart here. Residues, ends and D or L forms follow the SMILES beside them. *: point of attachment. Cbz = O=C(OCc1ccccc1)*; CH2Cl = ClC*

Assays:
poliovirus type 2 [1] = type: cell-based, human poliomyelitisvirus type 2
rhinovirus type 1A [2] = assay: Plaque inhibition assay; type: cell-based, Human rhinovirus type 1A
subtilisin BPNʹ = settings: series of peptide chloromethyl ketones; cited from earlier work
poliovirus type 2 [3] = type: cell-based
chymotrypsin = settings: inhibitor concentration of 600 µg/mL; cited from earlier work
rhinovirus type 1A [4] = type: cell-based, human rhinovirus type 1A

For `COC(=O)CCC(=O)N[C@@H](Cc1ccccc1)C(=O)NCC(=O)N[C@@H](CC(C)C)C(=O)N[C@@H](CC(C)C)C(C)=O` [MeOSuc-Phe-Gly-Leu-LeuCH₃], which “activity in the viral cleavage assay” value (poliovirus type 2 [1]; 50 µg/mL) is on record?
The value was “active”.

For `CC(C)C[C@H](NC(=O)[C@H](CC(C)C)NC(=O)CNC(=O)[C@H](Cc1ccccc1)NC(=O)OCc1ccccc1)C(=O)CCl` [Z-Phe-Gly-Leu-LeuCH₂Cl] (Cbz-FGLL-CH2Cl), which “cytotoxicity first detected at a concentration of” value (human HeLa-O cells) is on record?
The value was “about 15 µg/mL”.

And the “Antiviral activity, as scored by 90% plaque reduction, noted at” value (rhinovirus type 1A [2]; HeLa cells)?
The value was 1 µg/mL.

With “acetyl-L-phenylalanyl-L-glycyl-L-alanyl-L-leucyl chloromethyl ketone (Ac-FGAL-CH2Cl; SMILES CC(=O)N[C@@H](Cc1ccccc1)C(=O)NCC(=O)N[C@@H](C)C(=O)N[C@@H](CC(C)C)C(=O)CCl) [Ac-Phe-Gly-Ala-LeuCH₂Cl]” as the compound, how does the “inhibition of subtilisin BPNʹ (rate ranking among the compounds tested)” value (subtilisin BPNʹ) read?
The value was “fastest inhibitor”.

What does the source list for `CC(=O)[C@H](CC(C)C)NC(=O)[C@H](C)NC(=O)CNC(=O)[C@H](Cc1ccccc1)NC(=O)OCc1ccccc1` [Z-Phe-Gly-Ala-LeuCH₃]?
plaque reduction (poliovirus type 2 [3]): > 90%; No cytotoxicity observed at concentrations up to (human HeLa-O cells): > 1 mg/mL; activity in the viral cleavage assay (poliovirus type 2 [1]; 50 µg/mL): active; plaque reduction (rhinovirus type 1A [2]; 50 µg/mL in agar overlays, compared to control plates): > 90%

For Ac-Leu-Leu-PheCH₃, which inhibition of chymotrypsin (chymotrypsin) is on record?
The inhibition of chymotrypsin was “no inhibition was observed”.

Which results are given for `CC(=O)[C@H](CC(C)C)NC(=O)[C@H](C)NC(=O)CNC(=O)[C@H](Cc1ccccc1)NC(=O)OC(C)(C)C` [Boc-Phe-Gly-Ala-LeuCH₃]?
activity in the viral cleavage assay (rhinovirus type 1A [4]): failed to show activity; activity in the viral cleavage assay (poliovirus type 2 [1]): failed to show activity
